Assay results taken from ChEMBL document CHEMBL1153461, “Inhibitory effects of flavonoids isolated from Fragaria ananassa Duch on IgE-mediated degranulation in rat basophilic leukemia RBL-2H3” (Bioorg Med Chem, 2009).
Activity calls are given as the source filed them. The rule behind the calls is not given here.

Assays:
[1] = biological target: T1, 1-phosphatidylinositol 4,5-bisphosphate phosphodiesterase gamma-1 (Rattus norvegicus) (UniProt P10686); test: Inhibition of PLCgamma1 phosphorylation in DNP-BSA-stimulated rat RBL2H3 cells by Western blotting; type: cell-based; settings: RBL-2H3
T1 sequence (whole entry): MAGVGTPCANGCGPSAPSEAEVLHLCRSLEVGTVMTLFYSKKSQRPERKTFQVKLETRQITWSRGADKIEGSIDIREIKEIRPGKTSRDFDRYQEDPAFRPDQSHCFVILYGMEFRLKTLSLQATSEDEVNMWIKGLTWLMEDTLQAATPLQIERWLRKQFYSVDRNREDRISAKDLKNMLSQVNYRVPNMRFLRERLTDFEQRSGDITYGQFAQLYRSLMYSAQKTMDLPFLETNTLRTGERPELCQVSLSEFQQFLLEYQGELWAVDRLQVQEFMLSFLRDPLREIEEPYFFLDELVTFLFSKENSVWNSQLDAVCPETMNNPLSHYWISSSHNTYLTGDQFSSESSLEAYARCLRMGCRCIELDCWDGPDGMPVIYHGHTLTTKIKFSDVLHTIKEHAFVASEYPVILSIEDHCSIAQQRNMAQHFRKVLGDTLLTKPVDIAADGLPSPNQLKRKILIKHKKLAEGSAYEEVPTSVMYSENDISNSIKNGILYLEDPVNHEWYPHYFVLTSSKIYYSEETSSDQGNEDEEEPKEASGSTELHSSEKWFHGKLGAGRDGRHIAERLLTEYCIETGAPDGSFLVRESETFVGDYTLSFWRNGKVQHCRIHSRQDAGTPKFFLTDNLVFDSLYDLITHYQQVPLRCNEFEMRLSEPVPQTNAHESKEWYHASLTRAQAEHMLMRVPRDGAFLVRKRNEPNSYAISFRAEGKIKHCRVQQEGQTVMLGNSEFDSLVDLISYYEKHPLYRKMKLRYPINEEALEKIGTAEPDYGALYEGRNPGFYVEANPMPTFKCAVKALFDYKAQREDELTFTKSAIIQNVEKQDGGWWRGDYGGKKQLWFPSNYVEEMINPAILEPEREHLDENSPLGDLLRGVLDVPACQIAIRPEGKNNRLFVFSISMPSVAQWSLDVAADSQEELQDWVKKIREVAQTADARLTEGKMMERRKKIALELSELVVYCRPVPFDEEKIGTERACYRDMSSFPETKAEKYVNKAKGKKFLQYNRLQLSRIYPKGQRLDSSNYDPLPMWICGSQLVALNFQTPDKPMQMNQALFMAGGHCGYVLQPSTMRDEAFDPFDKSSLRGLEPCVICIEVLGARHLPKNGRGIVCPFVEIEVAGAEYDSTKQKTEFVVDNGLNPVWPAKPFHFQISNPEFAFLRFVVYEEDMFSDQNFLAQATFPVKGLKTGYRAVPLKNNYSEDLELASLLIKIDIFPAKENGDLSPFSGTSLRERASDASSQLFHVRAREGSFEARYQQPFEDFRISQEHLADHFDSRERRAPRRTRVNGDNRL

[2] = system: RBL-2H3; test: Antiallergic activity in IgE-sensitized rat RBL2H3 cells assessed as inhibition of DNP-BSA-stimulated beta hexaminidase release relative to control; type: functional, cell-based
[3] = system: RBL-2H3; test: Antiallergic activity in IgE-sensitized DNP-BSA-stimulated rat RBL2H3 cells assessed as decrease in intracellular Ca2+ level by fluorimetry; type: functional, cell-based
[4] = biological target: Tyrosine-protein kinase SYK (Rattus norvegicus) (UniProt Q64725); test: Inhibition of Syk phosphorylation in DNP-BSA-stimulated rat RBL2H3 cells by Western blotting; type: cell-based; settings: RBL-2H3
[5] = system: RBL-2H3; test: Antiallergic activity in IgE-sensitized rat RBL2H3 cells assessed as inhibition of A-23187-stimulated beta hexaminidase release relative to control; type: functional, cell-based
[6] = system: RBL-2H3; test: Inhibition of ERK phosphorylation in DNP-BSA-stimulated rat RBL2H3 cells by Western blotting; type: cell-based
[7] = biological target: T2, 1-phosphatidylinositol 4,5-bisphosphate phosphodiesterase gamma-2 (Rattus norvegicus) (UniProt P24135); test: Inhibition of PLCgamma2 phosphorylation in DNP-BSA-stimulated rat RBL2H3 cells by Western blotting; type: cell-based; settings: RBL-2H3
T2 sequence (whole entry): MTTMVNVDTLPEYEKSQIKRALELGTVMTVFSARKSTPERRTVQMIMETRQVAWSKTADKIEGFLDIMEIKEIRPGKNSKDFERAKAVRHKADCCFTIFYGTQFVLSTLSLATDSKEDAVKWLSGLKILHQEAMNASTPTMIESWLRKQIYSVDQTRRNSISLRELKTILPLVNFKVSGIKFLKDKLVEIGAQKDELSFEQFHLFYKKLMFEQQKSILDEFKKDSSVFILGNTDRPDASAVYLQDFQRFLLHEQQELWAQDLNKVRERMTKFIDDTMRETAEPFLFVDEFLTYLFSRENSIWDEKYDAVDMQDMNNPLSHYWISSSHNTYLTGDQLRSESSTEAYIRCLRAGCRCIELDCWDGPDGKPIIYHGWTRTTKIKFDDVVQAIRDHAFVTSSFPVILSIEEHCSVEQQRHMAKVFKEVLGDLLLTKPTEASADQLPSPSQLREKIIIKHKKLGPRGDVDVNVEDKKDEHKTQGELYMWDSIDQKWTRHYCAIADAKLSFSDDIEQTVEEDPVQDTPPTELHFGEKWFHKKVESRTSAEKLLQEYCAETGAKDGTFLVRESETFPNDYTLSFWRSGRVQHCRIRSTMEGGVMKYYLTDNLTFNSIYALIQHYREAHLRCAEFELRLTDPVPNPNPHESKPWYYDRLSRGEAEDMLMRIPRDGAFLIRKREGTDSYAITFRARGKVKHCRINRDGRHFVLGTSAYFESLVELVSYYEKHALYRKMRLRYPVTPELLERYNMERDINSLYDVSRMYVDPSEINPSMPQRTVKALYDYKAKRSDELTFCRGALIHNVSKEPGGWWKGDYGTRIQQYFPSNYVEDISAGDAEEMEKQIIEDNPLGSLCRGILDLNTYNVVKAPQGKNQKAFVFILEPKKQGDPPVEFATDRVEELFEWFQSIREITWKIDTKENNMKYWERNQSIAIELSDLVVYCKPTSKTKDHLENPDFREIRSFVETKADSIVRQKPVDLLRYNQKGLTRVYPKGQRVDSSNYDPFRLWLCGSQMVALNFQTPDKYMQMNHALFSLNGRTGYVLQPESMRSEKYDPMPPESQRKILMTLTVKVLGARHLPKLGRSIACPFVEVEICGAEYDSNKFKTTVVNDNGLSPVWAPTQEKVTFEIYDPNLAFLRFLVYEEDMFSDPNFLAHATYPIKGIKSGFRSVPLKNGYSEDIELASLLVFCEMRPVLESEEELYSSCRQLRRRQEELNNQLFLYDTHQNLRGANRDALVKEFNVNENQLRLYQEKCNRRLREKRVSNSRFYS

[8] = system: RBL-2H3; test: Inhibition of p38 phosphorylation in DNP-BSA-stimulated rat RBL2H3 cells by Western blotting; type: cell-based
[9] = system: RBL-2H3; test: Inhibition of ERK in DNP-BSA-stimulated rat RBL2H3 cells assessed as reduction in cPLA2 phosphorylation by Western blotting; type: cell-based
[10] = system: RBL-2H3; test: Inhibition of JNK phosphorylation in DNP-BSA-stimulated rat RBL2H3 cells by Western blotting; type: cell-based
[11] = system: Radical scavenging activity; test: Antioxidant activity assessed as radical DPPH scavenging activity; type: functional
[12] = system: RBL-2H3; test: Antioxidant activity in IgE-sensitized rat RBL2H3 cells assessed as reduction in DNP-BSA-mediated intracellular ROS production at 50 uM after 30 mins by fluorimetry; type: functional, cell-based

Chain of Tyrosine-protein kinase SYK (Rattus norvegicus) (Q64725 whole entry, looked up): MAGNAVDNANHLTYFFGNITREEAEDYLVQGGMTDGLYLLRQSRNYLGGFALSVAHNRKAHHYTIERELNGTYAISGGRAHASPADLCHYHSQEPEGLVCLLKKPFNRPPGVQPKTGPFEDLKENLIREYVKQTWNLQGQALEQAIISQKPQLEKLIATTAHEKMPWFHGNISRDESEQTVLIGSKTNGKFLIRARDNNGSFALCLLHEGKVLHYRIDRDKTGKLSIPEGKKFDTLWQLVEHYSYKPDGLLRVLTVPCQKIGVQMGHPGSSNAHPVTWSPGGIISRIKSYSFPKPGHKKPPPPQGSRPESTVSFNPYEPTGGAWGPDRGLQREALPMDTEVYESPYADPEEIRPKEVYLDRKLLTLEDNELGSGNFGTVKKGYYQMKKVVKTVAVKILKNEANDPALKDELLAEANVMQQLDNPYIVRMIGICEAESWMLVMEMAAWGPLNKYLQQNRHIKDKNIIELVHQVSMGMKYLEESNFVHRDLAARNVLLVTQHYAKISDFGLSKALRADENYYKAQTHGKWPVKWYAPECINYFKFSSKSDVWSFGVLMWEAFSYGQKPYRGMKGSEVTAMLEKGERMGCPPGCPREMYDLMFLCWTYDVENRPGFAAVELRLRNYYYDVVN

Compound | Activity [1] | inhibition [2] | Activity [3] | Activity [4] | Activity [5] | Activity [6] | Activity [7] | Activity [8] | Activity [9] | Activity [10] | ED50 [11] | Activity [12]
O=c1c(O)c(-c2ccc(O)cc2)oc2cc(O)cc(O)c12 | Active | Active | Active | Active | Active | Active | Active | Active | Active | Active | < 100 µM | –
O=c1cc(-c2ccccc2)oc2cc(O)cc(O)c12 | inactive | Active | Active | inactive | Active | inactive | inactive | inactive | – | inactive | < 100 µM | –
O=C1O[C@H]([C@@H](O)CO)C(O)=C1O | – | – | – | – | – | – | – | – | – | – | 18 µM | –
O=C(O[C@@H]1Cc2c(O)cc(O)cc2O[C@@H]1c1cc(O)c(O)c(O)c1)c1cc(O)c(O)c(O)c1 | inactive | – | – | inactive | – | – | inactive | – | – | – | 7 µM | –
O=C(/C=C/c1ccc(O)cc1)OC[C@H]1O[C@@H](Oc2c(-c3ccc(O)cc3)oc3cc(O)cc(O)c3c2=O)[C@H](O)[C@@H](O)[C@@H]1O | inactive | Active | Active | inactive | Active | Active | inactive | Active | Active | Active | < 100 µM | Active
O=C(/C=C/c1ccccc1)Oc1cc(O)c2c(=O)cc(-c3ccccc3)oc2c1 | inactive | Active | Active | inactive | Active | Active | inactive | Active | Active | Active | < 100 µM | Active
VITAMIN E | – | – | – | – | – | – | – | – | – | – | 78 µM | –
